Experiments:
[1] = test system: Sprague-Dawley (SD) rats; assay: stomach emptying and carbon powder propelling in SD rats (Example 1); assay type: in vivo, rat; conditions: X ± SE
Procedure: Each group had 10 rats, half male and half female. The tails of the rats were labeled as follows:
The dose selection is calculated based on human dose. The clinical human dose is estimated to be about 0.4 mg/injection, one injection per day, which corresponds to 36 μg/kg rat dose, calculated based on the body surface area. Accordingly, the rats were tested at a medium dose of 30 μg/kg, a low dose at 50% of the medium dose, and a high dose at 200% of the medium dose. The clinical human dose of liraglutide for treating obesity is 3.0 mg/injection, one injection per day, which corresponds to 270 μg/kg rat dose, calculated based on the body surface area.
The positive control was liraglutide injectable formulation, which was stored in dark, sealed condition. The rats were raised and kept at the Laboratory Animal Center, Shanghai University of Traditional Chinese Medicine.
The injectable formulations were made and diluted at the time of experiment, as follows:
The rats were fasted for 16 hours with only water provided. Before being divided into groups, the rats were weighed and weights were recorded (cage numbering and tail labeling). Based on the body weight, the rats were randomly divided into 5 groups, 10 in each group, half male and half female.
The rats were administered with appropriate amounts of Beinaglutide or liraglutide based on their body weights by subcutaneous injection. Female rats were injected after male rats, in the order of their group numbers: 101, 201, 301, 401, 501, 102, 202, 302, 402, 502, etc. The formulations were injected to the rats by lifting the skin in the back, placing the needle of the syringe subcutaneously and injecting. When retrieving the needle, the site of injection was pressed with hand to avoid leakage of the formulation. The amount of injection is about 0.1 ml/100 g body weight.

[2] = test system: diabetes patients; conditions: 0.2 mg TID for 12 weeks; temporary
[3] = test system: type 2 diabetic patients; assay: trial 5B: Beinaglutide with metformin in type 2 diabetic patients
[4] = test system: Sprague-Dawley (SD) rats; assay: stomach emptying in male and female SD rats, various dosages (Example 6); conditions: for % of Gastric Remains / Gross Weight of Stomach / Propelling Distance of Carbon Powder / Propelling Rate of Carbon Powder: X ± SE
Procedure: Five minutes after subcutaneous injection, gavage was conducted using 5% carbon powder suspension (in 2% carboxymethylcellulose solution) at 1.5 ml/100 g body weight. […] The stomach was wiped dry with filter paper and weighed for the gross weight of the stomach. Then the content of the stomach was removed and the stomach was weighed for the net weight. The respective distance from the pyloric sphincter to the front of carbon powder suspension and to the distal end of the large intestine was measured. • propelling distance of carbon powder in the intestine (cm)=distance from pylorus to the proximal end of carbon powder; • mass of carbon powder gavaged=concentration of carbon powder suspension×volume; • propelling rate of carbon powder (%)=propelling distance of carbon powder in the intestine (cm)/entire length of intestine (cm)×100%; • rate of gastric remains (%)=(gross weight of stomach−net weight of stomach)/mass of carbon powder gavaged×100%.
The animals were fasted 29-33 hours before injection, and the animals were not given any water 5-7 hours before injection. Injections were made by subcutaneous administration to the neck, at 0.1 ml/100 g body weight.

[5] = female rats, Beinaglutide 15 μg/kg subcutaneous
[6] = female rats, Beinaglutide 30 μg/kg subcutaneous
[7] = female rats, Beinaglutide 60 μg/kg subcutaneous
[8] = male rats, Beinaglutide 15 μg/kg subcutaneous
[9] = male rats, Beinaglutide 30 μg/kg subcutaneous
[10] = male rats, Beinaglutide 60 μg/kg subcutaneous
[11] = female rats, 10 μg/kg subcutaneous
[12] = female rats, 12.5 μg/kg subcutaneous
[13] = female rats, 15 μg/kg subcutaneous
[14] = female rats, 30 μg/kg subcutaneous
[15] = female rats, 45 μg/kg subcutaneous
[16] = female rats, 60 μg/kg subcutaneous
[17] = male rats, 10 μg/kg subcutaneous
[18] = male rats, 12.5 μg/kg subcutaneous
[19] = male rats, 15 μg/kg subcutaneous
[20] = male rats, 30 μg/kg subcutaneous
[21] = male rats, 45 μg/kg subcutaneous
[22] = male rats, 60 μg/kg subcutaneous

CC[C@H](C)[C@H](NC(=O)[C@H](Cc1ccccc1)NC(=O)[C@H](CCC(=O)O)NC(=O)[C@H](CCCCN)NC(=O)[C@H](C)NC(=O)[C@H](C)NC(=O)[C@H](CCC(N)=O)NC(=O)CNC(=O)[C@H](CCC(=O)O)NC(=O)[C@H](CC(C)C)NC(=O)[C@H](Cc1ccc(O)cc1)NC(=O)[C@H](CO)NC(=O)[C@H](CO)NC(=O)[C@@H](NC(=O)[C@H](CC(=O)O)NC(=O)[C@H](CO)NC(=O)[C@@H](NC(=O)[C@H](Cc1ccccc1)NC(=O)[C@@H](NC(=O)CNC(=O)[C@H](CCC(=O)O)NC(=O)[C@H](C)NC(=O)[C@@H](N)Cc1cnc[nH]1)[C@@H](C)O)[C@@H](C)O)C(C)C)C(=O)N[C@@H](C)C(=O)N[C@@H](Cc1c[nH]c2ccccc12)C(=O)N[C@@H](CC(C)C)C(=O)N[C@H](C(=O)N[C@@H](CCCCN)C(=O)NCC(=O)N[C@@H](CCCNC(=N)N)C(=O)O)C(C)C [Beinaglutide]
% of Gastric Remains [1, 5]: 96.81 ± 11.61 % | Gross Weight of Stomach [1, 5]: 3.10 ± 0.22 g | Propelling Distance of Carbon Powder [1, 5]: 41.96 ± 5.30 cm | Propelling Rate of Carbon Powder [1, 5]: 46.97 ± 5.54 % | % of Gastric Remains [1, 6]: 132.66 ± 16.34 % | Gross Weight of Stomach [1, 6]: 3.78 ± 0.35 g | Propelling Distance of Carbon Powder [1, 6]: 30.58 ± 3.66 cm | Propelling Rate of Carbon Powder [1, 6]: 33.88 ± 3.98 % | % of Gastric Remains [1, 7]: 141.53 ± 7.18 % | Gross Weight of Stomach [1, 7]: 3.90 ± 0.15 g | Propelling Distance of Carbon Powder [1, 7]: 5.40 ± 1.84 cm | Propelling Rate of Carbon Powder [1, 7]: 5.94 ± 1.99 % | % of Gastric Remains [1, 8]: 44.14 ± 17.18% | Gross Weight of Stomach [1, 8]: 2.86 ± 0.52 g | Propelling Distance of Carbon Powder [1, 8]: 64.22 ± 3.84 cm | Propelling Rate of Carbon Powder [1, 8]: 61.80 ± 4.14% | % of Gastric Remains [1, 9]: 54.92 ± 14.32% | Gross Weight of Stomach [1, 9]: 3.08 ± 0.48 g | Propelling Distance of Carbon Powder [1, 9]: 34.40 ± 5.91 cm | Propelling Rate of Carbon Powder [1, 9]: 35.46 ± 6.15 % | % of Gastric Remains [1, 10]: 128.70 ± 14.23 % | Gross Weight of Stomach [1, 10]: 5.36 ± 0.52 g | Propelling Distance of Carbon Powder [1, 10]: 11.90 ± 6.38 cm | Propelling Rate of Carbon Powder [1, 10]: 12.28 ± 6.69 % | most common side effects [2]: nausea and vomiting | BMI ([3]; 0.1 mg three times a day with metformin, treatment for 2 weeks, FAS n = 73, Day 1 26.24 ± 3.31): 26.12 ± 3.29 kg/m^2 | BMI ([3]; 0.1 mg three times a day with metformin, treatment for 4 weeks, FAS n = 73, Day 1 26.24 ± 3.31): 26.02 ± 3.33 kg/m^2 | BMI ([3]; 0.1 mg three times a day with metformin, treatment for 8 weeks, FAS n = 73, Day 1 26.24 ± 3.31): 25.84 ± 3.25 kg/m^2 | BMI ([3]; 0.1 mg three times a day with metformin, treatment for 12 weeks, FAS n = 73, Day 1 26.24 ± 3.31): 25.76 ± 3.21 kg/m^2 | BMI ([3]; 0.2 mg three times a day with metformin, treatment for 2 weeks, FAS n = 70, Day 1 25.14 ± 3.10): 25.03 ± 3.21 kg/m^2 | BMI ([3]; 0.2 mg three times a day with metformin, treatment for 4 weeks, FAS n = 70, Day 1 25.14 ± 3.10): 24.85 ± 3.25 kg/m^2 | BMI ([3]; 0.2 mg three times a day with metformin, treatment for 8 weeks, FAS n = 70, Day 1 25.14 ± 3.10): 24.54 ± 3.33 kg/m^2 | BMI ([3]; 0.2 mg three times a day with metformin, treatment for 12 weeks, FAS n = 70, Day 1 25.14 ± 3.10): 24.43 ± 3.42 kg/m^2 | minimal effective dosage (inhibition of stomach emptying) ([4]; female rats): 10 µg/kg | % of Gastric Remains [4, 11]: 36.42 ± 6.50% | Gross Weight of Stomach [4, 11]: 1.86 ± 0.14 g | Propelling Distance of Carbon Powder [4, 11]: 53.01 ± 3.12 cm | Propelling Rate of Carbon Powder [4, 11]: 49.92 ± 2.97 % | % of Gastric Remains [4, 12]: 47.54 ± 5.22% | Gross Weight of Stomach [4, 12]: 2.03 ± 0.10 g | Propelling Distance of Carbon Powder [4, 12]: 49.50 ± 2.54 cm | Propelling Rate of Carbon Powder [4, 12]: 46.83 ± 2.41 % | % of Gastric Remains [4, 13]: 51.86 ± 6.07% | Gross Weight of Stomach [4, 13]: 2.18 ± 0.11 g | Propelling Distance of Carbon Powder [4, 13]: 44.50 ± 2.97 cm | Propelling Rate of Carbon Powder [4, 13]: 41.26 ± 2.63 % | % of Gastric Remains [4, 14]: 73.35 ± 16.68 % | Gross Weight of Stomach [4, 14]: 2.59 ± 0.38 g | Propelling Distance of Carbon Powder [4, 14]: 33.96 ± 5.58 cm | Propelling Rate of Carbon Powder [4, 14]: 32.15 ± 5.54 % | % of Gastric Remains [4, 15]: 120.95 ± 9.48 % | Gross Weight of Stomach [4, 15]: 3.55 ± 0.21 g | Propelling Distance of Carbon Powder [4, 15]: 25.06 ± 5.91 cm | Propelling Rate of Carbon Powder [4, 15]: 23.18 ± 5.46 % | % of Gastric Remains [4, 16]: 141.28 ± 8.90 % | Gross Weight of Stomach [4, 16]: 3.90 ± 0.20 g | Propelling Distance of Carbon Powder [4, 16]: 15.71 ± 4.58 cm | Propelling Rate of Carbon Powder [4, 16]: 14.36 ± 4.08 % | human dose corresponding to minimal effective dosage ([4]; from female rats 10 μg/kg): 0.11 mg/day | human dose corresponding to minimal effective dosage ([4]; from male rats 30 μg/kg): 0.33 mg/day | minimal effective dosage (inhibition of stomach emptying) ([4]; male rats): 30 µg/kg | % of Gastric Remains [4, 17]: 39.93 ± 6.46% | Gross Weight of Stomach [4, 17]: 2.39 ± 0.19 g | Propelling Distance of Carbon Powder [4, 17]: 55.20 ± 2.69 cm | Propelling Rate of Carbon Powder [4, 17]: 50.91 ± 2.84% | % of Gastric Remains [4, 18]: 38.98 ± 3.50% | Gross Weight of Stomach [4, 18]: 2.36 ± 0.09 g | Propelling Distance of Carbon Powder [4, 18]: 54.96 ± 3.96 cm | Propelling Rate of Carbon Powder [4, 18]: 50.36 ± 3.34% | % of Gastric Remains [4, 19]: 40.22 ± 7.06% | Gross Weight of Stomach [4, 19]: 2.42 ± 0.20 g | Propelling Distance of Carbon Powder [4, 19]: 52.27 ± 3.75 cm | Propelling Rate of Carbon Powder [4, 19]: 48.22 ± 3.05% | % of Gastric Remains [4, 20]: 58.23 ± 7.38 % | Gross Weight of Stomach [4, 20]: 2.92 ± 0.23 g | Propelling Distance of Carbon Powder [4, 20]: 42.82 ± 2.81 cm | Propelling Rate of Carbon Powder [4, 20]: 38.55 ± 2.81 % | % of Gastric Remains [4, 21]: 97.66 ± 9.95 % | Gross Weight of Stomach [4, 21]: 3.90 ± 0.27 g | Propelling Distance of Carbon Powder [4, 21]: 15.73 ± 4.30 cm | Propelling Rate of Carbon Powder [4, 21]: 14.67 ± 4.13 % | % of Gastric Remains [4, 22]: 110.28 ± 7.79 % | Gross Weight of Stomach [4, 22]: 4.21 ± 0.19 g | Propelling Distance of Carbon Powder [4, 22]: 14.64 ± 4.32 cm | Propelling Rate of Carbon Powder [4, 22]: 12.91 ± 3.68 %

Source: patent publication US20210052703A1 (SHANGHAI BENEMAE PHARMACEUTICAL CORPORATION, priority 2018, published 2021)
